Results from patent US9376420B2 (YUHAN CORPORATION, priority 2012, dated 2016).

Molecular target: T1, human LXRβ (Homo sapiens, UniProt P55055)
T1 construct: expressed in transfected cells; host or cells: HEK293 cells (ATCC CRL-1573), transient transfection with pFA-hLXRβ/GAL4 and pUAS
T1 sequence (P55055 222-460 limits assumed): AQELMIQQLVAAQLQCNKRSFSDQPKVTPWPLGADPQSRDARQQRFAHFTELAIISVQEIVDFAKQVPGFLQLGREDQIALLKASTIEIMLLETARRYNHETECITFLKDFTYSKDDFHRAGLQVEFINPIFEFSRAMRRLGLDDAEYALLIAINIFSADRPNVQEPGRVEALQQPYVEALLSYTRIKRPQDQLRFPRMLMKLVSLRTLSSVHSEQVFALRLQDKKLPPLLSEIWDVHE
Assay: Assay for Transcriptional Activity of LXRβ (GAL4-hLXRβ LBD luciferase reporter, transient transfection)
Assay type: cell-based
Settings: HEK293 cells transfected with pFA-hLXRβ/GAL4 and pUAS, 24 hours; for Emax: fold value in comparison with the control (DMSO-treated group); for EC50: increase of transcriptional activity of LXRβ, average of three independent tests
Source text: The ligand-binding domain (LBD) cDNA of human LXRβ was inserted into an expression vector (pFA, Stratagene, USA) site adjacent to the yeast GAL4 transcription factor DNA binding domain to prepare an expression construct (pFA-hLXRβ/GAL4) (Willey et al., Genes & Development 9 1033-1045 (1995). The GAL4-responsive luciferase reporter plasmid, i.e., pUAS (Stratagene, USA), contained five copies of the GAL4 response element placed adjacent to the promoter and the luciferase reporter gene. The pFA-hLXRβ/GAL4 and pUAS were introduced into mammalian cells through transient transfection, followed by measuring the transcriptional activity of LXRβ.
HEK293 cells (human kidney cells, sATCC, CRL-1573) were incubated at a T-75 flask containing a DMEM supplemented with 10% fetal bovine serum (FBS) in a 37° C., until they reach about 70˜80% confluency. The culture media containing the cells was added to each well of a 96-well plate in a density of 5×10^4 cells per well. The pFA-hLXRβ/GAL4 and pUAS was transfected to the cells using a cationic-lipid transfection reagent (Lipofectamine™, Invitrogen), through culturing at 37° C. for 3 hours for transient transfection according to the manufacturer's instruction. The test compounds were dissolved in dimethyl sulfoxide (DMSO) in the concentrations of 50, 30, 10, 3, 1, 0.3, 0.1, 0.03, and 0.01 μM and then cells were treated with the prepared compound-containing solution (100 μl). The cells were incubated at 37° C. for 24 hours. After removal of the medium from each well, the lysis buffer (25 mM Tricine pH7.8, 2 mM DTT, 2 mM EGTA, 10% glycerol, 1% Triton X-100) was added with the amount of 20 μl per each well, and the plate was stirred at room temperature for 15 minutes. The luciferase reagent (prepared by adding 10 ml of the luciferase buffer (Promega) to 1 vial of the luciferase substrate (Promega)) was added to each well with the amount of 100 μl per well, followed by assaying with a luminometer according to the manufacturer's instruction.
The dose-response curve for calculating the EC50 values of the test compounds on the increase of transcriptional activity of LXRβ was prepared using the known LXR agonist (i.e., N-(2,2,2-trifluoro-ethyl)-N-[4-(2,2,2-trifluoro-1-hydroxy-1-trifluoromethyl-ethyl)-phenyl]-benzenesulfonamide) as a positive control and the vehicle (DMSO) as a negative control. The dose-response curve was produced from the 9-point curve having different concentrations at a 1/2 log unit. The EC50 value of a test compound, which is defined as a concentration for initiating the reaction corresponding to the half value between the Top value (i.e., the maximum value) and the Bottom value (baseline), was calculated according to the following equation. Y=Bottom+(Top-Bottom)/(1+10^((log EC50-X)*Hill Slope)).
In the above equation, Y is the observed value; X is the log concentration; Hill Slope is the slope of the curve; and Top and Bottom are the maximum value of test compound and the baseline value, respectively.
The following tables 1 and 2 show the EC50 values of the test compounds measured as in the above. In the tables 1 and 2, each EC50 value represents an average value obtained from three independent tests.

| Structure (SMILES) | Emax [fold] | EC50 [nM] |
| --- | --- | --- |
| Oc1cccc(-c2cccc(C3CC(C(F)(F)C(F)(F)F)=NN3c3ccccc3Cl)c2)c1 (stereo not shown) [Example 111, 1-(2-chloro-phenyl)-5-(3′-hydroxy-biphenyl-3-yl)-3-pentafluoroethyl-4,5-dihydro-1H-pyrazole] | 41 | 4150 |
| COc1ncc(-c2ccc(C3CC(C(O)(C(F)(F)F)C(F)(F)F)=NN3c3ccccc3Cl)cc2)c(OC)n1 (stereo not shown) [Example 280, 1-(2-chloro-phenyl)-5-[4-(2,4-dimethoxy-pyrimidin-5-yl)-phenyl]-3-[di-(trifluoromethyl)-hydroxy-methyl]-4,5-dihydro-1H-pyrazole] | 81 | 556 |
| CS(=O)(=O)c1ccc(-c2ccnc(C3CC(C(F)(F)C(F)(F)F)=NN3c3ccc(F)cc3F)c2)cc1 (stereo not shown) [Example 174, 1-(2,4-difluoro-phenyl)-5-[4-(4-methanesulfonyl-phenyl)-pyridin-2-yl]-3-pentafluoroethyl-4,5-dihydro-1H-pyrazole] | 119 | 543 |
| OC(C1=NN(c2ccccc2Cl)C(c2ccc(-c3cnc(Cl)nc3)cc2)C1)(C(F)(F)F)C(F)(F)F (stereo not shown) [Example 281, 1-(2-chloro-phenyl)-5-[4-(2-chloro-pyrimidin-5-yl)-phenyl]-3-[di-(trifluoromethyl)-hydroxy-methyl]-4,5-dihydro-1H-pyrazole] | 66 | 1790 |
| CSc1cccc(-c2ccc(F)c(C3CC(C(F)(F)C(F)(F)F)=NN3c3ccc(F)cc3F)c2)c1 (stereo not shown) [Example 138, 1-(2,4-difluoro-phenyl)-5-(4-fluoro-3′-(methylsulfanyl)biphenyl-3-yl)-3-pentafluoroethyl-4,5-dihydro-1H-pyrazole] | 153 | 501 |
| OC(C1=NN(c2ccccc2Cl)C(c2ccc(-c3ccc(F)c(Cl)c3)cc2)C1)(C(F)(F)F)C(F)(F)F (stereo not shown) [Example 256, 5-(3′-chloro-4′-fluoro-biphenyl-4-yl)-1-(2-chloro-phenyl)-3-[di-(trifluoromethyl)-hydroxy-methyl]-4,5-dihydro-1H-pyrazole] | 51 | 729 |
| CN(CCO)S(=O)(=O)c1ccc(-c2cccc(C3CC(C(F)(F)C(F)(F)F)=NN3c3ccc(F)cc3F)c2)cc1 (stereo not shown) [Example 88, 1-(2,4-difluoro-phenyl)-5-{4′-[(2-hydroxy-ethyl)-methyl-sulfamoyl]-biphenyl-3-yl}-3-pentafluoroethyl-4,5-dihydro-1H-pyrazole] | 72 | 819 |
| CS(=O)(=O)N1CC=C(c2ccnc(C3CC(C(F)(F)C(F)(F)F)=NN3c3ccc(F)cc3F)c2)CC1 (stereo not shown) [Example 180, 1-(2,4-difluoro-phenyl)-5-[4-(1-methanesulfonyl-1,2,3,6-tetrahydropyridin-4-yl)-pyridin-2-yl]-3-pentafluoroethyl-4,5-dihydro-1H-pyrazole] | 118 | 513 |
| CS(=O)(=O)c1ccc(-c2cccc(C3CC(C(F)(F)C(F)(F)F)=NN3c3ccc(Cl)cc3Cl)c2)cc1 (stereo not shown) [Example 41, 1-(2,4-dichloro-phenyl)-5-(4′-methanesulfonyl-biphenyl-3-yl)-3-pentafluoroethyl-4,5-dihydro-1H-pyrazole] | 89 | 1660 |
| Nc1cccc(-c2ccc(C3CC(C(O)(C(F)(F)F)C(F)(F)F)=NN3c3ccccc3Cl)cc2)c1 (stereo not shown) [Example 253, 5-(3′-amino-biphenyl-4-yl)-1-(2-chloro-phenyl)-3-[di-(trifluoromethyl)-hydroxy-methyl]-4,5-dihydro-1H-pyrazole] | 55 | 1070 |
| CS(=O)(=O)c1ccc(-c2ccc(C3CC(C(O)(C(F)(F)F)C(F)(F)F)=NN3c3ccccc3Cl)cc2)c(C(F)(F)F)c1 (stereo not shown) [Example 289, 1-(2-chloro-phenyl)-5-[4′-(methylsulfonyl)-2′-(trifluoromethyl)-biphenyl-4-yl]-3-[di-(trifluoromethyl)-hydroxy-methyl]-4,5-dihydro-1H-pyrazole] | 32 | 320 |
| CSc1cccc(-c2ccc(C3CC(C(F)(F)C(F)(F)F)=NN3Cc3ccccc3Cl)cc2)c1 (stereo not shown) [Example 15, 1-(2-chloro-benzyl)-5-(3′-methylsulfanyl-biphenyl-4-yl)-3-pentafluoroethyl-4,5-dihydro-1H-pyrazole] | 23 | 14800 |

Continued, values first:

| Emax [fold] | EC50 [nM] | Structure (SMILES) |
| --- | --- | --- |
| 52 | 5470 | O=S(=O)(C1CCCCC1)N1CC=C(c2ccc(C3CC(C(O)(C(F)(F)F)C(F)(F)F)=NN3c3ccccc3Cl)cc2)CC1 (stereo not shown) [Example 307, 1-(2-chloro-phenyl)-5-[4-(1-cyclohexanesulfonyl-1,2,3,6-tetrahydropyridin-4-yl)-phenyl]-3-[di-(trifluoromethyl)-hydroxy-methyl]-4,5-dihydro-1H-pyrazole] |
| 59 | 883 | CC(C)S(=O)(=O)N1CCN(c2ccc(C3CC(C(O)(C(F)(F)F)C(F)(F)F)=NN3c3ccccc3Cl)cc2)CC1 (stereo not shown) [Example 314, 1-(2-chloro-phenyl)-5-[4-(4-isopropylsulfonyl-piperazin-1-yl)-phenyl]-3-[di-(trifluoromethyl)-hydroxy-methyl]-4,5-dihydro-1H-pyrazole] |
| 58 | 731 | CN(C)S(=O)(=O)N1CCN(c2ccc(C3CC(C(O)(C(F)(F)F)C(F)(F)F)=NN3c3ccc(F)cc3F)cc2)CC1 (stereo not shown) [Example 407, 1-(2,4-difluoro-phenyl)-5-[4-(4-dimethylsulfamoyl-piperazin-1-yl)-phenyl]-3-[di-(trifluoromethyl)-hydroxy-methyl]-4,5-dihydro-1H-pyrazole] |
| 38 | 450 | N#Cc1ncccc1-c1ccc(C2CC(C(O)(C(F)(F)F)C(F)(F)F)=NN2c2ccc(F)cc2F)cc1 (stereo not shown) [Example 380, 5-[4-(2-cyano-pyridin-3-yl)-phenyl)-1-(2,4-difluoro-phenyl)-3-[di-(trifluoromethyl)-hydroxy-methyl]-4,5-dihydro-1H-pyrazole] |
| 83 | 316 | CCS(=O)(=O)N1CC=C(c2ccc(C3CC(C(O)(C(F)(F)F)C(F)(F)F)=NN3c3ccccc3Cl)cc2)CC1 (stereo not shown) [Example 299, 1-(2-chloro-phenyl)-5-[4-(1-ethanesulfonyl-1,2,3,6-tetrahydropyridin-4-yl)-phenyl]-3-[di-(trifluoromethyl)-hydroxy-methyl]-4,5-dihydro-1H-pyrazole] |
| 62 | 42 | CS(=O)(=O)c1cccc(-c2ccc(C3CC(C(O)(C(F)(F)F)C(F)(F)F)=NN3c3ccccc3Cl)c(F)c2)c1 (stereo not shown) [Example 347, 1-(2-chloro-phenyl)-5-(3-fluoro-3′-methanesulfonyl-biphenyl-4-yl)-3-[di-(trifluoromethyl)-hydroxy-methyl]-4,5-dihydro-1H-pyrazole] |
| 39 | 551 | OC(C1=NN(c2ccc(F)cc2F)C(c2ccc(-c3ccc(-n4cnnn4)cc3)cc2)C1)(C(F)(F)F)C(F)(F)F (stereo not shown) [Example 373, 1-(2,4-difluoro-phenyl)-5-(4′-tetrazol-1-yl-biphenyl-4-yl)-3-[di-(trifluoromethyl)-hydroxy-methyl]-4,5-dihydro-1H-pyrazole] |
| 42 | 412 | OC(C1=NN(c2ccc(F)cc2F)C(c2ccc(-c3cncnc3)cc2)C1)(C(F)(F)F)C(F)(F)F (stereo not shown) [Example 372, 1-(2,4-difluoro-phenyl)-5-(4-pyrimidin-5-yl-phenyl)-3-[di-(trifluoromethyl)-hydroxy-methyl]-4,5-dihydro-1H-pyrazole] |
